Source: US4971966A, “Substituted pyrido(2,3-B) (1,4) benzodiazepin-6-ones, and medicaments containing these compounds” (Karl Thomae GmbH, priority 1986, dated 1990)
Read-outs that look alike come from different tables or passages of the source.

Tests used:
M2 = target: T1, M2 (Rattus norvegicus, UniProt P10980); assay: M1/M2 selectivity in the rat: M2-activity (vagal bradycardia); type: in vivo, male THOM rats; conditions: iv, read-out: M2-activity (rat) ED50
T1 construct: The bradycardia induced by stimulation of the vagus; from tissue; host or cells: living male THOM rat, heart
T1 sequence (P10980 1-466): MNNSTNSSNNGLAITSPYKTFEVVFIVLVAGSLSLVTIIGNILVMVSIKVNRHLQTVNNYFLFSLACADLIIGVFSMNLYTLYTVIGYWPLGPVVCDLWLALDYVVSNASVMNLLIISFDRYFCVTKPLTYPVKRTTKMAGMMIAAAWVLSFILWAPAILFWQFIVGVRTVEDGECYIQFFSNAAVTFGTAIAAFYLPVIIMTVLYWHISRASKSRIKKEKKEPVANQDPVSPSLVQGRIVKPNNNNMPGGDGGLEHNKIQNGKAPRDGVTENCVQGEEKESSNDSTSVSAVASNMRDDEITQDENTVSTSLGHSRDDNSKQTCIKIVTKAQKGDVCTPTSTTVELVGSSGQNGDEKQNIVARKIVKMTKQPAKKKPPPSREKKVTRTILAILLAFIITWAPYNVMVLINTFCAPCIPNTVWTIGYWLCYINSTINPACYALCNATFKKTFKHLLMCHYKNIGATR
Protocol: The method which was used has been described by Hammer and Giachetti (Life Sciences 31, 2991-2998 (1982)). Five minutes after intravenous injection of increasing doses of the substance, either the right vagus was electrically stimulated (frequency: 25 Hz; pulse width: 2ms; stimulus duration: 30s; number of volts: supramaximal) or 0.3 mg/kg McN-A-343 was injected intravenously into male THOM rats. The bradycardia induced by stimulation of the vagus, and the increase in blood pressure caused by McN-A-343, were determined. The dose of the substances which reduced either the vagal bradycardia (M2) or the increase in blood pressure (M1) by 50% was determined graphically.

M1 = target: T2, M1 (Rattus norvegicus, UniProt P08482); assay: M1/M2 selectivity in the rat: M1-activity (increase in blood pressure caused by McN-A-343); type: in vivo, male THOM rats; conditions: iv, read-out: M1-activity (rat) ED50
T2 construct: from tissue; host or cells: living male THOM rat, sympathetic ganglia (site by own knowledge)
T2 sequence (P08482 1-460): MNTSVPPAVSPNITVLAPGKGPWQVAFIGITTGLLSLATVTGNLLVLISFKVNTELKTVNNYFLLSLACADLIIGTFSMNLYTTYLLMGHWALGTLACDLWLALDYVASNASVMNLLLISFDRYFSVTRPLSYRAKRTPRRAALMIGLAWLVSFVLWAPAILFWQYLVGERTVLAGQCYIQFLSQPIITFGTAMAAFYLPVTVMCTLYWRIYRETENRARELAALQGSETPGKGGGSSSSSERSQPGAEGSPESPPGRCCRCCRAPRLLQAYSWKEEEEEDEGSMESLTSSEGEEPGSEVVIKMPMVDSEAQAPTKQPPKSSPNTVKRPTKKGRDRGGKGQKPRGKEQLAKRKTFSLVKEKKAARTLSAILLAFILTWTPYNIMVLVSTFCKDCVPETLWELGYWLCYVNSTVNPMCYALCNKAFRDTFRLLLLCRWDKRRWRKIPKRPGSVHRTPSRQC
Protocol: The dose of the substances which reduced either the vagal bradycardia (M2) or the increase in blood pressure (M1) by 50% was determined graphically.

[1] = target: T3, muscarinic receptors of the atrium (Cavia porcellus, UniProt H0VRN8); assay: Dissociation constants in vitro on the spontaneously beating right atrium; parameters: species or system guinea pig; conditions: methacholine agonist, 30 min contact, Arunlakshana and Schild, read-out: Dissociation constant KB, heart
T3 construct: In the isolated, spontaneously beating right atrium, M reduced the heart rate; from tissue; host or cells: guinea pig isolated right atrium
T3 sequence (H0VRN8 1-466): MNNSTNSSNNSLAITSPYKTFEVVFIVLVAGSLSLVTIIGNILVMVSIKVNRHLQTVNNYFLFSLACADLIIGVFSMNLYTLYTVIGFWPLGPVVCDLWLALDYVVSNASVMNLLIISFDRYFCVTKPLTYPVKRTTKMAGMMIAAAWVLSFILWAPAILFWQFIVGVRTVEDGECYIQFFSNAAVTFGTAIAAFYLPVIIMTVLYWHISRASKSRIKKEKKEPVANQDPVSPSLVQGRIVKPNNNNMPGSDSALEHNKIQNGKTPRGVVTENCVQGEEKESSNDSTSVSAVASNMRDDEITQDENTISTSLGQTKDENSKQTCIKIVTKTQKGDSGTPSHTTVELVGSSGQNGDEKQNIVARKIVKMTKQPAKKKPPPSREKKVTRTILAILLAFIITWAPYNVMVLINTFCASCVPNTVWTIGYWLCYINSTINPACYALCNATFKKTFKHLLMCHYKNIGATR
Protocol: (§1) Dissociation constants (KB values) were determined "in vitro" on the ileum and spontaneously beating atrium of the guinea pig. The ileum was removed and incubated in Krebs-Henseleit solution in an organ bath. Contractions were induced by increasing concentrations of methacholine (M) in such a way that it was possible to construct complete concentration-effect curves. Then M was washed out, the substance to be investigated was added and left in contact for 30 minutes, and again a concentration-effect curve with M was constructed.
Dissociation constants for the muscarinic receptors of the atrium were obtained in the same way as described above. Comparison of the dissociation constants determined in the two tissues permitted cardioselective substances to be identified.

[2] = target: T4, muscarinic receptors, heart atrium (Rattus norvegicus, UniProt P10980); assay: Receptor binding assay in vivo, heart atrium; parameters: species or system female rats; conditions: iv, 0.5 h, read-out: ID50, heart atrium
T4 construct: the heart, the bronchi and the lacrimal glands were removed; from tissue; host or cells: rat heart atrium, labelled in vivo
T4 sequence (P10980 1-466): T1 sequence (P10980 1-466)
Protocol: (§2) Female rats with a body weight of about 200 g were used for these experiments. Before the start of the experiment, the animals were anaesthetised with a dose of 1.25 g/kg urethane. The animals each received the specified dose of the test substance by i.v. injection. After 15 minutes had elapsed 113 ng/kg ^3 H-N-methylscopolamine (^3 H-NMS) were administered in the same way. After a further 15 minutes, the animals were sacrificed, and the heart, the bronchi and the lacrimal glands were removed. These organs were dissolved in Soluene R, and the radioactivity was determined. These measurements were assumed to be the total binding. […] ID50 values were determined for the individual organs from these experiments.

[3] = target: T5, muscarinic receptors, heart ventricle (Rattus norvegicus, UniProt P10980); assay: Receptor binding assay in vivo, heart ventricle; parameters: species or system female rats; conditions: iv, 0.5 h, read-out: ID50, heart ventricle
T5 construct: the heart, the bronchi and the lacrimal glands were removed; from tissue; host or cells: rat heart ventricle, labelled in vivo
T5 sequence (P10980 1-466): T1 sequence (P10980 1-466)
Protocol: as §2

[4] = test system: muscarinic receptors, bronchi; assay: Receptor binding assay in vivo, bronchi; parameters: species or system female rats; conditions: i.v.; inhibition of 50% of specific 3H-NMS binding; 30 min
Protocol: as §2

[5] = target: T6, muscarinic receptors, lacrimal glands (Rattus norvegicus, UniProt P08483); assay: Receptor binding assay in vivo, lacrimal gland; parameters: species or system female rats; conditions: iv, 0.5 h, read-out: ID50, lacrimal gland
T6 construct: the heart, the bronchi and the lacrimal glands were removed; from tissue; host or cells: rat lacrimal glands, labelled in vivo
Protocol: as §2

[6] = test system: pilocarpine-induced secretion of saliva; assay: Effect inhibiting secretion of saliva in the rat; type: in vivo, male THOM rats; conditions: iv, 2 mg/kg pilocarpine s.c., urethane anaesthesia, read-out: Inhibition of secretion of saliva (rat) ED50
Protocol: Secretion of saliva was induced by s.c. administration of 2 mg/kg pilocarpine. The saliva was absorbed using blotting paper, and the area covered by it was determined by planimetry every 5 minutes. The dose of the substance which reduced the volume of saliva by 50% was determined graphically.

[7] = target: muscarinic receptors, cerebral cortex; assay: Receptor binding assay in vitro, cerebral cortex (3H-NMS displacement); parameters: species or system male Sprague-Dawley rats; conditions: rat cerebral cortex homogenate; 0.3 nmolar 3H-NMS, 30° C., 45 min, pH 7.4
Protocol: The organ donors were male Sprague-Dawley rats with a body weight of 180-220 g. […] Finally, all the organs were processed in a potter homogeniser. […] The organ homogenates were incubated at a defined concentration of the radio-ligand and a series of concentrations of the non-radioactive test substances in Eppendorf centrifuge tubes at 30° C. The incubation lasted 45 minutes. The radioligand used was 0.3 nmolar ^3 H-N-methylscopolamine (^3 H-NMS). The incubation was stopped by addition of ice-cold buffer, followed by a vacuum filtration. The filters were washed with cold buffer, and their radioactivity was determined. This represents the total of specific and non-specific binding of ^3 H-NMS. The contribution of the non-specific binding was defined as that radioactivity which was bound in the presence of 1 micromolar quinuclidinyl benzylate. Determinations were always carried out in quadruplicate. The IC50 values of the unlabelled test substances were determined graphically.

[8] = target: T7, muscarinic receptors, submandibular gland (Rattus norvegicus, UniProt P08483); assay: Receptor binding assay in vitro, submandibular gland (3H-NMS displacement); parameters: species or system male Sprague-Dawley rats; conditions: rat submandibular gland homogenate; 0.3 nmolar 3H-NMS, 30° C., 45 min, pH 7.4
T7 construct: After removal of the heart, submandibular gland and cerebral cortex; from tissue; host or cells: rat submandibular gland homogenate

[9] = test system: heart rate, conscious dog; assay: Effect increasing the heart rate in the conscious dog (tachycardia); type: in vivo; conditions: for ED50: Canis lupus familiaris, dose for increase of 50 beats/min.
Protocol: The substances were either injected intravenously or administered orally, and the heart rate was measured using a tachygraph. After a control period, increasing doses of the compound were administered in order to increase the heart rate. In each case, the next dose was administered when the effect of the preceding dose was no longer evident. The dose of a substance which brought about an increase of 50 beats/min. (ED50) was determined graphically. Each substance was examined on 3 to 5 dogs.

[10] = target: T8, muscarinic receptors, ileum (Cavia porcellus, UniProt H0W1Z3); assay: Dissociation constants in vitro on the ileum; parameters: species or system guinea pig; conditions: ileum contractions; methacholine agonist; 30 min contact; Arunlakshana and Schild; read-out: Dissociation constant KB, ileum
T8 construct: The ileum was removed and incubated in Krebs-Henseleit solution in an organ bath; from tissue; host or cells: guinea pig isolated ileum
Protocol: as §1

[11] = target: T9, muscarinic receptors, complete heart (Rattus norvegicus, UniProt P10980); assay: biochemical
T9 sequence (P10980 1-466): T1 sequence (P10980 1-466)

T6 sequence (P08483 whole entry): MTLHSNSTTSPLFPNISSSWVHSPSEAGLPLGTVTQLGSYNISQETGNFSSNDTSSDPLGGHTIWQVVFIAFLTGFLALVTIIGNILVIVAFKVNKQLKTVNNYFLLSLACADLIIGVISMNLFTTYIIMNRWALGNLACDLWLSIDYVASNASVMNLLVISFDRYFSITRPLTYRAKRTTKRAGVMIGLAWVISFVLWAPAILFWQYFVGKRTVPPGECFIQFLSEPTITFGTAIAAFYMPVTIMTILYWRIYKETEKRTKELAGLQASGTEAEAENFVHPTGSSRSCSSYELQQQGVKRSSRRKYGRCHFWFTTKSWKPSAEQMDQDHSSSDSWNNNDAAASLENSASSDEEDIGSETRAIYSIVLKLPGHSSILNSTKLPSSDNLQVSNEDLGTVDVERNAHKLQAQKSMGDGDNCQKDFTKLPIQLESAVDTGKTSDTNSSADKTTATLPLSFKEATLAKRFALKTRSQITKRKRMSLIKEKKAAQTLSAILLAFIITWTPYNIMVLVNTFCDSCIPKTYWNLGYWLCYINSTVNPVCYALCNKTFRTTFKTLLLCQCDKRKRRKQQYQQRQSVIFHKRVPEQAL
T7 sequence (P08483 whole entry): as above
T8 sequence (H0W1Z3 1-590): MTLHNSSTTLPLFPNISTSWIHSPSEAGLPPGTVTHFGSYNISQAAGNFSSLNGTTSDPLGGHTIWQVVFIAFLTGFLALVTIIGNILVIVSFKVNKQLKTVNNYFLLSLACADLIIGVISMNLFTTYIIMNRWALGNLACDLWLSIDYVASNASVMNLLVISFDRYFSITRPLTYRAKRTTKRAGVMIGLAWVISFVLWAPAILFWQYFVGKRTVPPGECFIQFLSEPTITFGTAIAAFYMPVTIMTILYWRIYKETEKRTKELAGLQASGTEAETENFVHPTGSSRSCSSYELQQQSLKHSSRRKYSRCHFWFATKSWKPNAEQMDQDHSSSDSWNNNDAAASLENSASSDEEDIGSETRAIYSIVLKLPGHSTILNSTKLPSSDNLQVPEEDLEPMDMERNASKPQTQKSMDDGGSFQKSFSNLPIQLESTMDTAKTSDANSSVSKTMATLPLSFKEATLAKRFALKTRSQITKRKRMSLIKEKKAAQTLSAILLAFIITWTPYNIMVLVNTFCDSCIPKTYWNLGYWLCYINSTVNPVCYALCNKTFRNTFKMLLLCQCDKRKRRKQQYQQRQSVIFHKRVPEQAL

| IC50 [7] [µM] | IC50 [8] [µM] | ED50 (M2; 50% reduction of vagal bradycardia) [mg/kg] | Kb [10] [µM] | IC50 [11] [µM] | SMILES | ED50 (M2) [mg/kg] | ED50 (M1) [mg/kg] | Kb [1] [µM] | ED50 [2] [mg/kg] | ED50 [3] [mg/kg] | ID50, bronchi [4] [mg/kg] | ED50 [5] [mg/kg] | ED50 [6] [mg/kg] | ED50 ([9]; intravenous, read-out: Tachycardia (dog) ED50 intravenous) [mg/kg] | ED50 ([9]; oral, read-out: Tachycardia (dog) ED50 oral) [mg/kg] | Ratio ED50 p.o./ED50 i.v. ([9]; tachycardia, conscious dog) | ED50 (M1; 50% reduction of McN-A-343 (0.3 mg/kg i.v.) blood pressure increase) [mg/kg] |
| --- | --- | --- | --- | --- | --- | --- | --- | --- | --- | --- | --- | --- | --- | --- | --- | --- | --- |
|  |  |  |  |  | CN1[C@@H]2CC[C@H]1CC(OC(=O)C(CO)c1ccccc1)C2 (stereo partly drawn) [Substance D, atropine, reference compound] | 0.004 | 0.016 | 0.00141 | 0.08 | 0.03 | 0.1 | 0.2 |  |  |  |  |  |
|  |  |  |  |  | CCN(CC)CC1CCCCN1CC(=O)N1c2ccccc2C(=O)Nc2cccnc21 (stereo not drawn) [Substance B, 11-[[2-[(diethylamino)methyl]-1-piperidinyl]acetyl]-5,11-dihydro-6H-pyrido[2,3-b][1,4]benzodiazepin-6-one] |  |  |  |  |  |  | 30 |  |  |  |  |  |
|  |  |  |  |  | CN1CCN(CC(=O)N2c3ccccc3C(=O)Nc3cccnc32)CC1 [Substance C, 5,11-dihydro-11-[(4-methyl-1-piperazinyl)acetyl]-6H-pyrido[2,3-b][1,4]benzodiazepin-6one] |  |  |  |  |  |  |  | 0.084 |  |  |  |  |
| 0.5 | 1.5 | 0.077 | 0.513 | 0.05 | CCN(CC)CC1CCCCN1CC(=O)N1c2cc(Cl)ccc2C(=O)Nc2cccnc21 (stereo not drawn) [Substance A, 9-chloro-11-[[2-[(diethylamino)methyl]-1-piperidinyl]-acetyl]-5,11-dihydro-6H-pyrido[2,3-b]-[1,4]benzodiazepin-6-one] |  |  | 0.0148 | 0.6 | 0.3 | 8.0 | 30 | 7.57 | 0.17 | 0.38 | 2 | 1.48 |
